From ChEMBL document CHEMBL4602694, “Suppression of Drug-Resistant Non-Small-Cell Lung Cancer with Inhibitors Targeting Minichromosomal Maintenance Protein” (J Med Chem, 2020) come the findings set out here.

The structures appear in SMILES notation. Activity calls are given as the source filed them. The calls are words filed in the database; no cut-off is given here.

A short description of data set [1]: Toxicity in athymic nude BALB/c mouse xenografted with human NCI-H1975 cells assessed as reduction in body weight at 1 or 4 mg/kg, ip administered for 4 weeks. The data set is classed as organism-based. Particulars: in vivo, 672 h. (A xenograft is tissue or cells of one species grown in another, often human tumour cells in immunodeficient mice.)
Data set [2] in a line: Toxicity in athymic nude BALB/c mouse xenografted with human NCI-H1975 cells assessed as effect on liver at 1 or 4 mg/kg, ip administered for 4 weeks. Particulars: in vivo, 672 h. It counts as organism-based.
Data set [3] in a line: Toxicity in athymic nude BALB/c mouse xenografted with human NCI-H1975 cells assessed as effect on serum aspartate transaminase at 1 or 4 mg/kg, ip administered for 4 weeks. The data set is classed as organism-based. Particulars: in vivo, 672 h.
Data set [4] has as its system NCI-H1975. The data set can be described thus: Cell cycle arrest in human NCI-H1975 cells assessed as BrdU positive cells at 140 nM incubated for 24 hrs by BrdUrd incorporation assay (reference value: 44.5 +/- 2 %). It counts as functional.
Data set [5] deals with NCI-H1975. Put plainly: Induction of apoptosis in human NCI-H1975 cells assessed as increase in cleaved caspase 3 level at 140 nM incubated upto 72 hrs by immunoblotting analysis. It counts as functional, cell-based.
The subject of data set [6] is NCI-H1975. Put plainly: Induction of apoptosis in human NCI-H1975 cells assessed as increase in cleaved PARP1 level at 140 nM incubated upto 72 hrs by immunoblotting analysis. It counts as functional, cell-based.
Data set [7] has as its system NCI-H1975. The data set can be described thus: Antiproliferative activity against human NCI-H1975 cells knock out SiRNA MCM2 assessed as reduction in cell viability incubated for 72 hrs by SRB assay relative to control. The data set is classed as functional. On the technique in general: In SRB staining, fixed cells bind dye roughly in proportion to their protein.
Data set [8] deals with DNA replication licensing factor MCM2 (Homo sapiens) (UniProt P49736). The data set can be described thus: Induction of ubiquitination of MCM2 in human NCI-H1975 cells incubated for 24 hrs by immunoblot analysis. It counts as cell-based. Background: In western blotting, separated proteins are transferred to a membrane and probed.
Sequence of DNA replication licensing factor MCM2 (Homo sapiens) (P49736 whole entry): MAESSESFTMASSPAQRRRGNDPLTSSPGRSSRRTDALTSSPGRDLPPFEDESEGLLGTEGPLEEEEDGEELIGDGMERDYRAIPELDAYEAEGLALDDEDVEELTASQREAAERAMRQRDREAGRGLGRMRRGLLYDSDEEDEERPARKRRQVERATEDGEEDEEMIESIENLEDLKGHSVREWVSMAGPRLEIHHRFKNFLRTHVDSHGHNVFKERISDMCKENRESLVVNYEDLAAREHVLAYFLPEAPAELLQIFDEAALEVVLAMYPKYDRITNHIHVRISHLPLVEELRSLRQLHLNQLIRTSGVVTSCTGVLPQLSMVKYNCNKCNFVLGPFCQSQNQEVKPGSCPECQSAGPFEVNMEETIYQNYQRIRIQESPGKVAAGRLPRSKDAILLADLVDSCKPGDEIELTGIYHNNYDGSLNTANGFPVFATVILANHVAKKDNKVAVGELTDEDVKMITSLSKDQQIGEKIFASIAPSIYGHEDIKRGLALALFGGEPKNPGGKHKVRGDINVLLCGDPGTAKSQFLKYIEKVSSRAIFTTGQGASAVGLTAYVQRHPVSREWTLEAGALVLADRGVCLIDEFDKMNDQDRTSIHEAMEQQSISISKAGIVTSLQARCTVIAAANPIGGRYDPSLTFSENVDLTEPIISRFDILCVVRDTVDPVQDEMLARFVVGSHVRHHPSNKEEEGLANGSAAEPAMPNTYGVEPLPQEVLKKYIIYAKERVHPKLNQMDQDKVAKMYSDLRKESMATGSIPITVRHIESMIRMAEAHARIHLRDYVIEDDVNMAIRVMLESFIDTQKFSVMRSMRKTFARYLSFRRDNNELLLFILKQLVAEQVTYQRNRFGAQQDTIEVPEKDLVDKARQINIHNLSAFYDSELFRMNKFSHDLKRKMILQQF
Data set [9] concerns the target T1, DNA replication licensing factor MCM6 (Homo sapiens) (UniProt Q14566).
T1 sequence (whole entry): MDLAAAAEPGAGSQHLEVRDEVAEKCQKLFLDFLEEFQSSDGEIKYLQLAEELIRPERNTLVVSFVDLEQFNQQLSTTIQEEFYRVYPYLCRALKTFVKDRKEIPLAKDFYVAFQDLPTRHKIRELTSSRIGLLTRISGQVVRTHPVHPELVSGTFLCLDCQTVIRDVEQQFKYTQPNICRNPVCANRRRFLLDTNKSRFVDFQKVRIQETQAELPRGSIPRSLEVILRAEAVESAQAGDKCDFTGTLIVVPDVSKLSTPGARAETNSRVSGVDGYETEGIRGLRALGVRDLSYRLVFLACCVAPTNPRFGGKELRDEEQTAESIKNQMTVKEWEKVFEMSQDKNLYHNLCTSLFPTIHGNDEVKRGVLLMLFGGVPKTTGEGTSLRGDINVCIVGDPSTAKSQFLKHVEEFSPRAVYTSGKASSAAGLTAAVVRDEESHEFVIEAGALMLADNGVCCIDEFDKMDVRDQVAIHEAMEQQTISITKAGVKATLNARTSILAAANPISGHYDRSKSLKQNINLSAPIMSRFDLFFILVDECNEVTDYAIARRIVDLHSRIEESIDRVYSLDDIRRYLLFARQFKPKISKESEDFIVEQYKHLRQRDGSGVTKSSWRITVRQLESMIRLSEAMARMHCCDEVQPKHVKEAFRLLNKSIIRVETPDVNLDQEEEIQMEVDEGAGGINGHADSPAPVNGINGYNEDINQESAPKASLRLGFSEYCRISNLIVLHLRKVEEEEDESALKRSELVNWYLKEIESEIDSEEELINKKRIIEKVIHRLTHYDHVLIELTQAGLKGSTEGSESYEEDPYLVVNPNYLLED
Put plainly: Induction of ubiquitination of MCM6 in human NCI-H1975 cells incubated for 24 hrs by immunoblot analysis. The data set is classed as cell-based.

For data set [10], the target named is DNA replication licensing factor MCM7 (Homo sapiens) (UniProt P33993). The data set can be described thus: Induction of ubiquitination of MCM7 in human H3255 cells incubated for 24 hrs by immunoblot analysis. Particulars: NCI-H3255. It counts as cell-based.
Sequence of DNA replication licensing factor MCM7 (Homo sapiens) (P33993 whole entry): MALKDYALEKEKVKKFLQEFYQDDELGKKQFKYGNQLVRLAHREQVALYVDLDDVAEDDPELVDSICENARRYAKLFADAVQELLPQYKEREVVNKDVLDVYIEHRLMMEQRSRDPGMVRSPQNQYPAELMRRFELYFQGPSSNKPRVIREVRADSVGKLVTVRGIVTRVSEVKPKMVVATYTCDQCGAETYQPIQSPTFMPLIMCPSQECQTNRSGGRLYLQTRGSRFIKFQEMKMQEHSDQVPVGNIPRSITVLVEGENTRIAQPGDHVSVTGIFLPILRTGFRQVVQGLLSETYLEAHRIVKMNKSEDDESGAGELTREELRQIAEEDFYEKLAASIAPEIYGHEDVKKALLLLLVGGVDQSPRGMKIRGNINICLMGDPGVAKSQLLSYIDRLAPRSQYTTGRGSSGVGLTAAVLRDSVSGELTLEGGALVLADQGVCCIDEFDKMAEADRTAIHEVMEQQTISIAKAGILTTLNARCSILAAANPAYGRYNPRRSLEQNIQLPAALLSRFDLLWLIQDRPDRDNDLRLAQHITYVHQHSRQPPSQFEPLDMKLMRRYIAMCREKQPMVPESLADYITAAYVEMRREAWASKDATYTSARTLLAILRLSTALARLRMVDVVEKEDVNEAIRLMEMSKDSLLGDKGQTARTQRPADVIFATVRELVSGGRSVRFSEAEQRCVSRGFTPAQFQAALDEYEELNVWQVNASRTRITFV
Data set [11] has as its target DNA replication licensing factor MCM2 (Homo sapiens) (UniProt P49736). Put plainly: Induction of ubiquitination of MCM2 in human PC9 cells incubated for 24 hrs by immunoblot analysis. It counts as cell-based. Particulars: PC-9.
For data set [12], the target named is T1, DNA replication licensing factor MCM6 (Homo sapiens). The data set can be described thus: Induction of ubiquitination of MCM6 in human PC9 cells incubated for 24 hrs by immunoblot analysis. The data set is classed as cell-based. Particulars: PC-9.
The target of data set [13] is DNA replication licensing factor MCM2 (Homo sapiens) (UniProt P49736). Put plainly: Induction of ubiquitination of MCM2 in human NCI-H1975 cells incubated for 72 hrs by immunoblot analysis (reference value: 1). The data set is classed as cell-based.
In data set [14] the target is DNA replication licensing factor MCM7 (Homo sapiens) (UniProt P33993). The data set can be described thus: Induction of ubiquitination of MCM7 in human NCI-H1975 cells incubated for 24 hrs by immunoblot analysis (reference value: 1). It counts as cell-based.
For data set [15], the target named is T2, DNA replication licensing factor MCM3 (Homo sapiens) (UniProt P25205).
T2 sequence (whole entry): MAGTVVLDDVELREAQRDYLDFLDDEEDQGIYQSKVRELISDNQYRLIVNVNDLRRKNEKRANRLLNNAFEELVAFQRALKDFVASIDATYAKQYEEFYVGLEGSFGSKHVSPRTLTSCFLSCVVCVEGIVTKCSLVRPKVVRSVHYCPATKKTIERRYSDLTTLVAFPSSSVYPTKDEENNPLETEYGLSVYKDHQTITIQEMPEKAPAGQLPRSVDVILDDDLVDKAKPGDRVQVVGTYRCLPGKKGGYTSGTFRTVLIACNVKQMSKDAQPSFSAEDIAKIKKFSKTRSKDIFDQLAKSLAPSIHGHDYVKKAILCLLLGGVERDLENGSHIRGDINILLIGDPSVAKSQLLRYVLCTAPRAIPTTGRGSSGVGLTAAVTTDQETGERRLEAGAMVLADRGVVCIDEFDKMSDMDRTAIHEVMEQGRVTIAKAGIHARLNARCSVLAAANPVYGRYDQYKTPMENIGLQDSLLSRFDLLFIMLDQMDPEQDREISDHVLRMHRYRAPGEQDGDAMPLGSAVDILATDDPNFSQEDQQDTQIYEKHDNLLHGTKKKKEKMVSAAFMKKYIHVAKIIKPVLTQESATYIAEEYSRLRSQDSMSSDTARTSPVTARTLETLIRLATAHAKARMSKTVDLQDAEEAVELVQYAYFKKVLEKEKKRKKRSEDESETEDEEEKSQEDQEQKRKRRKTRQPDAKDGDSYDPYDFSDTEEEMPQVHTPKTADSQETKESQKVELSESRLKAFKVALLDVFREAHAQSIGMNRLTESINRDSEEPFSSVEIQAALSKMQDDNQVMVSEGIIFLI
The data set can be described thus: Induction of ubiquitination of MCM3 in human NCI-H1975 cells incubated for 24 hrs by immunoblot analysis (reference value: 1). It counts as cell-based.

The target of data set [16] is DNA replication licensing factor MCM2 (Homo sapiens) (UniProt P49736). The data set can be described thus: Induction of ubiquitination of MCM2 in human NCI-H1975 cells in presence of MLN4924 incubated for 24 hrs followed by MLN4924 addition and measured after 6 hrs by immunoblot analysis. The data set is classed as cell-based.
Data set [17] has as its system NCI-H1975. Put plainly: Antiproliferative activity against human NCI-H1975 cells harboring FLAG-tagged MCM2 Q341A mutant assessed as reduction in cell viability incubated for 72 hrs by SRB assay. It counts as functional, cell-based. Particulars: NCI-H1975, 72 h.
A short description of data set [18]: Selectivity index, ratio of IC50 for human bronchial epithelial cells to IC50 for human CL1-0 cells. Particulars: human bronchial epithelial cells versus CL1-0 cells, read-out: Ratio IC50. The data set is classed as toxicity.

Regarding `Cc1oc2c(c1C(=O)NCCCn1ccnc1)C(=O)c1ccccc1C2=O`, the Activity entry in data set [1] is “Non-Toxic”; in data set [2], “Non-Toxic”; in data set [3], “Non-Toxic”; in the data set on NCI-H1975 [4], 27.7%; in data set [8], “Dose-dependent effect”; in data set [9] it was “Dose-dependent effect”. In addition, the figures for the Activity in data set [13], in [14] and in data set [15] were 0.3, 0.8 and 1.1, respectively. In addition, the outcome (in the data set with NCI-H1975 [5]; in the data set on NCI-H1975 [6]; in data set [10]; in [11]; in data set [12]) was Active. For the same compound, the “inhibition (INH)” value in the data set with NCI-H1975 [7] was determined as 33%. Moreover, the result in data set [16] was inactive. Besides, the IC50 in the data set on NCI-H1975 [17] came to 150 nM. Moreover, the selectivity ratio in data set [18] was over 10.

As usually defined, the IC50 is the concentration that inhibits the measured activity by half.
